The NIST ThermoML archive (doi:10.1021/je800150h)
± gives the expanded uncertainty stated by the source.

Assay: mn = molality of the nth substance listed, in mol/kg
Conditions: 101 kPa, Liquid; for electrical conductivity: CyberScan CON500 conductivity meter

An electrical conductivity (313.15 K, m1 = 0.196) of 0.289 ± 0.023 S/m, an electrical conductivity (313.15 K, m1 = 0.391) of 0.447 ± 0.036 S/m and an electrical conductivity (313.15 K, m1 = 0.782) of 0.652 ± 0.052 S/m were found for `[Cl-].[Li+]` [lithium chloride] + CCO in this work. For the same compound, the electrical conductivity (313.15 K, m1 = 1.173) was 0.773 ± 0.062 S/m, the electrical conductivity (313.15 K, m1 = 1.76) was 0.852 ± 0.068 S/m and the electrical conductivity (313.15 K, m1 = 2.347) was 0.822 ± 0.066 S/m. For the same compound, the electrical conductivity (313.15 K, m1 = 3.129) was 0.712 ± 0.057 S/m, the electrical conductivity (313.15 K, m1 = 3.911) was 0.624 ± 0.05 S/m and the mass density (313.15 K, m1 = 0.196) was 773 ± 3.4 kg/m3. It also gave a viscosity (313.15 K, m1 = 0.196) of 0.928 ± 0.046 mPa·s, a mass density (313.15 K, m1 = 0.391) of 779 ± 3.4 kg/m3 and a viscosity (313.15 K, m1 = 0.391) of 1.046 ± 0.052 mPa·s. For the same compound, the mass density (313.15 K, m1 = 0.782) was 790.7 ± 3.5 kg/m3, the viscosity (313.15 K, m1 = 0.782) was 1.267 ± 0.061 mPa·s and the mass density (313.15 K, m1 = 1.173) was 801.9 ± 3.5 kg/m3. The viscosity (313.15 K, m1 = 1.173) was 1.524 ± 0.073 mPa·s, the mass density (313.15 K, m1 = 1.76) was 815.8 ± 3.6 kg/m3 and the viscosity (313.15 K, m1 = 1.76) was 2.01 ± 0.094 mPa·s. It also gave a mass density (313.15 K, m1 = 2.347) of 835.2 ± 3.7 kg/m3, a viscosity (313.15 K, m1 = 2.347) of 2.762 ± 0.13 mPa·s and a mass density (313.15 K, m1 = 3.129) of 854.7 ± 3.8 kg/m3. It also gave a viscosity (313.15 K, m1 = 3.129) of 4.089 ± 0.18 mPa·s, a mass density (313.15 K, m1 = 3.911) of 873.7 ± 3.9 kg/m3 and a viscosity (313.15 K, m1 = 3.911) of 6.076 ± 0.26 mPa·s. It also gave an electrical conductivity (318.15 K, m1 = 0.196) of 0.309 ± 0.025 S/m, an electrical conductivity (318.15 K, m1 = 0.391) of 0.48 ± 0.038 S/m and an electrical conductivity (318.15 K, m1 = 0.782) of 0.708 ± 0.057 S/m. The electrical conductivity (318.15 K, m1 = 1.173) was 0.843 ± 0.067 S/m, the electrical conductivity (318.15 K, m1 = 1.76) was 0.931 ± 0.074 S/m and the electrical conductivity (318.15 K, m1 = 2.347) was 0.91 ± 0.073 S/m. It also gave an electrical conductivity (318.15 K, m1 = 3.129) of 0.792 ± 0.063 S/m, an electrical conductivity (318.15 K, m1 = 3.911) of 0.697 ± 0.056 S/m and a mass density (318.15 K, m1 = 0.196) of 772.2 ± 3.6 kg/m3. It also gave a viscosity (318.15 K, m1 = 0.196) of 0.866 ± 0.044 mPa·s, a mass density (318.15 K, m1 = 0.391) of 778.6 ± 3.6 kg/m3 and a viscosity (318.15 K, m1 = 0.391) of 0.968 ± 0.048 mPa·s. For the same compound, the mass density (318.15 K, m1 = 0.782) was 790.9 ± 3.7 kg/m3, the viscosity (318.15 K, m1 = 0.782) was 1.164 ± 0.057 mPa·s and the mass density (318.15 K, m1 = 1.173) was 801.8 ± 3.7 kg/m3. The viscosity (318.15 K, m1 = 1.173) was 1.414 ± 0.068 mPa·s, the mass density (318.15 K, m1 = 1.76) was 816.8 ± 3.8 kg/m3 and the viscosity (318.15 K, m1 = 1.76) was 1.842 ± 0.087 mPa·s. For the same compound, the mass density (318.15 K, m1 = 2.347) was 834.9 ± 3.9 kg/m3, the viscosity (318.15 K, m1 = 2.347) was 2.538 ± 0.12 mPa·s and the mass density (318.15 K, m1 = 3.129) was 853.9 ± 4 kg/m3. It also gave a viscosity (318.15 K, m1 = 3.129) of 3.735 ± 0.17 mPa·s, a mass density (318.15 K, m1 = 3.911) of 874 ± 4.1 kg/m3 and a viscosity (318.15 K, m1 = 3.911) of 5.603 ± 0.25 mPa·s. It also gave an electrical conductivity (323.15 K, m1 = 0.196) of 0.327 ± 0.026 S/m, an electrical conductivity (323.15 K, m1 = 0.391) of 0.512 ± 0.041 S/m and an electrical conductivity (323.15 K, m1 = 0.782) of 0.762 ± 0.061 S/m. For the same compound, the electrical conductivity (323.15 K, m1 = 1.173) was 0.911 ± 0.073 S/m, the electrical conductivity (323.15 K, m1 = 1.76) was 1.02 ± 0.082 S/m and the electrical conductivity (323.15 K, m1 = 2.347) was 0.998 ± 0.08 S/m. It also gave an electrical conductivity (323.15 K, m1 = 3.129) of 0.875 ± 0.07 S/m, an electrical conductivity (323.15 K, m1 = 3.911) of 0.783 ± 0.063 S/m and a mass density (323.15 K, m1 = 0.196) of 768.7 ± 3.8 kg/m3. It also gave a viscosity (323.15 K, m1 = 0.196) of 0.807 ± 0.041 mPa·s, a mass density (323.15 K, m1 = 0.391) of 774.3 ± 3.8 kg/m3 and a viscosity (323.15 K, m1 = 0.391) of 0.884 ± 0.045 mPa·s. For the same compound, the mass density (323.15 K, m1 = 0.782) was 786.1 ± 3.8 kg/m3, the viscosity (323.15 K, m1 = 0.782) was 1.07 ± 0.053 mPa·s and the mass density (323.15 K, m1 = 1.173) was 796.6 ± 3.9 kg/m3. The viscosity (323.15 K, m1 = 1.173) was 1.285 ± 0.062 mPa·s, the mass density (323.15 K, m1 = 1.76) was 811 ± 4 kg/m3 and the viscosity (323.15 K, m1 = 1.76) was 1.677 ± 0.079 mPa·s. For the same compound, the mass density (323.15 K, m1 = 2.347) was 830.4 ± 4.1 kg/m3, the viscosity (323.15 K, m1 = 2.347) was 2.335 ± 0.11 mPa·s and the mass density (323.15 K, m1 = 3.129) was 851.3 ± 4.2 kg/m3. It also gave a viscosity (323.15 K, m1 = 3.129) of 3.437 ± 0.16 mPa·s, a mass density (323.15 K, m1 = 3.911) of 869.4 ± 4.3 kg/m3 and a viscosity (323.15 K, m1 = 3.911) of 5.009 ± 0.23 mPa·s.
